For two molecules, MIC and ED50 results are on record in patent publication EP0620225B1, “Cephalosporin derivatives” (Basilea Pharmaceutica AG, priority 1993, dated 1994).

Experiment [1] relates to Staph. aureus Smith. As to the kind of experiment: MIC, agar dilution method in Mueller Hinton agar. Type of experiment: cell-based. To be noted: Staphylococcus aureus, read-out: Minimum Inhibiting Concentration Values. Here is the method: (§1) In vitro activity was determined by minimum inhibitory concentration in a microorganism spectum by the agar dilution method in Mueller Hinton agar.
A general note: In agar dilution the substance is mixed into plates at graded concentrations.

The test system of experiment [2] is Staph. aureus ATCC 29213. As to the kind of experiment: MIC, agar dilution method in Mueller Hinton agar. Type of experiment: cell-based. To be noted: Staphylococcus aureus, ATCC29213, read-out: Minimum Inhibiting Concentration Values. Here is the method:
as §1

Experiment [3] deals with Ps. aeruginosa ATCC 27853. The experiment is described as follows: MIC, agar dilution method in Mueller Hinton agar. Type of experiment: cell-based. To be noted: Pseudomonas aeruginosa, ATCC27853, read-out: Minimum Inhibiting Concentration Values. Here is the method: as §1
Experiment [4] concerns Ps. aeruginosa 5712. As to the kind of experiment: MIC, agar dilution method in Mueller Hinton agar. In kind it is cell-based. As to conditions: Pseudomonas aeruginosa, read-out: Minimum Inhibiting Concentration Values. On the procedure:
as §1

Experiment [5] relates to Prot. vulgaris ATCC 6380. The experiment is described as follows: MIC, agar dilution method in Mueller Hinton agar. To be noted: Proteus vulgaris, ATCC6380, read-out: Minimum Inhibiting Concentration Values. In kind it is cell-based. Here is the method: as §1
Experiment [6] has as its system E. coli TEM-1. The experiment is described as follows: MIC, agar dilution method in Mueller Hinton agar. In kind it is cell-based. To be noted: Escherichia coli, TEM1, read-out: Minimum Inhibiting Concentration Values. Here is the method: as §1
The test system of experiment [7] is E. coli ATCC 25922. The experiment is described as follows: MIC, agar dilution method in Mueller Hinton agar. Type of experiment: cell-based. As to conditions: Escherichia coli, ATCC25922, read-out: Minimum Inhibiting Concentration Values. Here is the method:
as §1

The test system of experiment [8] is Str. pneumoniae 6301. As to the kind of experiment: MIC, agar dilution method in Mueller Hinton agar. Type of experiment: cell-based. To be noted: Streptococcus pneumoniae, 6301, read-out: Minimum Inhibiting Concentration Values. Here is the method:
as §1

Experiment [9] has as its system Str. pyogenes 4. As to the kind of experiment: MIC, agar dilution method in Mueller Hinton agar. In kind it is cell-based. To be noted: Streptococcus pyogenes, read-out: Minimum Inhibiting Concentration Values. On the procedure: as §1
The test system of experiment [10] is Pseudomonas aeruginosa BA. The experiment is described as follows: Efficacy against systemic infections (septicemia) in mice. Type of experiment: in vivo. As to conditions: 96 h, sc (subcutaneous) 1, 3 and 5 h after challenge, survival day 4. The procedure, abridged:
(§2)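 Swiss albino mice (16–20 g) infected i.p. with 4–10× the 48-h LD50 of each strain; compound given p.o. or s.c. at 1 and 3 h post-challenge, plus 5 h for P. aeruginosa BA. Five mice per group; ED50 (mg/kg) by probit analysis of day-4 survival.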

The subject of experiment [11] is Streptococcus pyogenes 15. The description is as above. In kind it is in vivo. To be noted: 96 h, Streptococcus pyogenes 15, po (orally) 1 and 3 h after challenge, survival day 4. The procedure, abridged: as §2
In experiment [12] the test system is Escherichia coli 25922. The experiment is described as above. Type of experiment: in vivo. As to conditions: 96 h, Escherichia coli 25922, po (orally) 1 and 3 h after challenge, survival day 4. The procedure, abridged:
as §2

Where a name gives a salt, the structure may show the parent alone.

Regarding `Nc1nc(/C(=N/OCC(=O)O)C(=O)N[C@@H]2C(=O)N3C(C(=O)O)=C(/C=C4\CCN(CC(F)(F)F)C4=O)CS[C@H]23)cs1` [A, [6R-[3(E),6α,7β(Z)]]-7-[[(2-Amino-4-thiazolyl)[(carboxy-methoxy)imino]-acetyl]amino]-3-[[1-(2,2,2-trifluoroethyl)-2-oxo-3-pyrrolidinylidene]-methyl]-8-oxo-5-thia-1-aza-bicyclo[4.2.0]oct-2-ene-2-carboxylic acid disodium salt], the MIC is 8 µg/mL in experiment [1]; 16 µg/mL in [2]; 8 µg/mL in [3]; 8 µg/mL in experiment [4]; not above 0.0156 µg/mL in experiment [5]; 0.0625 µg/mL in experiment [6]. The MIC in experiment [7] amounted to 0.0625 µg/mL; in [8], 0.0625 µg/mL; in experiment [9], 0.125 µg/mL. The ED50 – broadly, the dose at which the effect has come halfway, by size or by number of responders – is 12 mg/kg in experiment [10], more than 0.8 mg/kg in experiment [11] and less than 0.1 mg/kg in experiment [12].

Consider `Nc1nc(/C(=N/OCC(=O)O)C(=O)N[C@@H]2C(=O)N3C(C(=O)O)=C(/C=C4\CCN(CCF)C4=O)CS[C@H]23)cs1` [B, [6R-[3(E),6α,7β(Z)]]-7-[[(2-Amino-4-thiazolyl)[(carboxy-methoxy)imino]-acetyl]amino]-3-[[1-(2-fluoroethyl)-2-oxo-3-pyrrolidinylidene]methyl]-8-oxo-5-thia-1-azabicyclo[4.2.0]-oct-2-ene-2-carboxylic acid disodium salt], for which the MIC is 8 µg/mL in [1]; 16 µg/mL in experiment [2]; 4 µg/mL in experiment [3]; 4 µg/mL in experiment [4]; not above 0.0156 µg/mL in experiment [5]; 0.0313 µg/mL in experiment [6]. Besides, the MIC in [7] came to 0.0313 µg/mL; in [8] it was 0.0313 µg/mL; in experiment [9], 0.125 µg/mL. Also, the figures for the ED50 in [10], in experiment [11] and in experiment [12] were 3.5 mg/kg, 0.5 mg/kg and less than 0.1 mg/kg, respectively.
